What was measured:
[1] = test system: induction of TAT by dexamethasone in HepG2 cells; test: Hep G2 TAT assay (inhibition of dexamethasone-induced TAT); format: cell-based, human; conditions: challenge of 100 nM dexamethasone, IC50 converted to Ki by Cheng and Prusoff equation
[2] = molecular target: glucocorticoid receptor (GR) recombinant ligand binding domain (LBD) (Homo sapiens (Human), UniProt P04150); test: GR binding fluorescence polarisation (FP) assay; conditions: displacement of fluorescently tagged ligand
Sequence of glucocorticoid receptor (GR) recombinant ligand binding domain (LBD) (P04150 524-758): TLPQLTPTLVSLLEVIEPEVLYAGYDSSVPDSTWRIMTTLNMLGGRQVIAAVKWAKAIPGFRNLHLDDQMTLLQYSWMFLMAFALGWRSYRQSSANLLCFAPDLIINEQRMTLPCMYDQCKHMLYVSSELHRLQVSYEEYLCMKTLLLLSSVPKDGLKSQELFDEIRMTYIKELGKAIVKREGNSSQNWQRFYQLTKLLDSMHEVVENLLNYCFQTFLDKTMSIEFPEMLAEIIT
Description: Binding of test compounds to the glucocorticoid receptor (GR) is determined using a fluorescence polarisation (FP) assay utilising a recombinant ligand binding domain (LBD) of GR. The test compounds are assessed by their ability to displace a fluorescently tagged ligand and detection of the resulting decrease in fluorescence polarisation.

Row | IC50 [2] [nM] | Compound | Ki [1] [nM]
1 | 24 | CCCn1cc(S(=O)(=O)N2CC[C@](Cc3ccccc3)(c3cc4cnn(-c5ccc(F)cc5)c4cc3C)C2)cn1 [Example 18, (R)-5-(3-benzyl-1-((1-propyl-1H-pyrazol-4-yl)sulfonyl)pyrrolidin-3-yl)-1-(4-fluorophenyl)-6-methyl-1H-indazole] | 9
2 | 8 | Cc1cc2c(cnn2-c2ccc(F)cc2)cc1C1(Cc2ccccc2)CCN(C)C1 (stereo not shown) [Example 20, 5-(3-benzyl-1-methylpyrrolidin-3-yl)-1-(4-fluorophenyl)-6-methyl-1H-indazole] | 236
3 | 84 | CCCn1cc(S(=O)(=O)N2CCC(COC)(c3cc4cnn(-c5ccc(F)cc5)c4cc3C)CC2)cn1 [Example 24, 1-(4-fluorophenyl)-5-(4-(methoxymethyl)-1-((1-propyl-1H-pyrazol-4-yl)sulfonyl)piperidin-4-yl)-6-methyl-1H-indazole] | 1510
4 | 95 | Cc1cc2c(cnn2-c2ccc(F)cc2)cc1N1CCN(S(=O)(=O)c2cnn(CC3CC3)c2)[C@H](C)C1 [Example 43] | 467
5 | 27 | CCCn1cc(S(=O)(=O)N2CCN(c3ccc4c(cnn4-c4ccc(F)cc4)c3)CC23CC3)cn1 [Example 50] | 480
6 | 35 | Cc1cc2c(cnn2-c2ccc(F)cc2)cc1N1CCN(S(=O)(=O)c2cnn(C(C)C)n2)C2(CC2)C1 [Example 68] | 30
7 | 162 | CCCn1cc(S(=O)(=O)N2CCN(c3cc4cnn(-c5ccc(F)cc5)c4cc3C)C(c3ccccc3)C2)cn1 (stereo not shown) [Example 86] | 864
8 | 3 | CCCn1cc(S(=O)(=O)NC2(C)CCN(c3cc4cnn(-c5ccc(F)cc5)c4cc3C)C2)cn1 (stereo not shown) [Example 120] | 218
9 | 40 | COCCN([C@@H]1CCN(c2cc3cnn(-c4ccc(F)cc4)c3cc2C)C1)S(=O)(=O)c1cnn(C)c1 [Example 121] | 120
10 | 73 | Cc1cc2c(cnn2-c2ccc(F)cc2)cc1N1CCC[C@H](N(C)S(C)(=O)=O)C1 [Example 123] | 284
11 | 58 | Cc1cc2c(cnn2-c2ccc(F)cc2)cc1N1CCC[C@H](N(C)S(=O)(=O)c2cnn(C)c2)C1 [Example 124] | 216
12 | 4 | Cc1cc2c(cnn2-c2ccc(F)cc2)cc1N1CCC(C)(NS(=O)(=O)c2cnn(C)c2)CC1 [Example 131] | 98
13 | 13 | Cc1cc2c(cnn2-c2ccc(F)cc2)cc1N1CCC(C)(NS(=O)(=O)c2cnn(CC3CC3)n2)CC1 [Example 132] | 34
14 | 7 | Cc1cc2c(cnn2-c2ccc(F)cc2)cc1N1CCC(C)(NS(=O)(=O)c2cnn(CC3CC3)c2)CC1 [Example 133] | 50
15 | 384 | CCCn1cc(S(=O)(=O)N2CC=C(c3cc4cnn(-c5ccc(F)cc5)c4cc3Cl)CC2)cn1 [Example 143] | 32
16 | 265 | CCCn1cc(S(=O)(=O)N2CC=C(c3cc4cnn(-c5ccc(F)cc5)c4cc3OC(F)F)CC2)cn1 [Example 144] | 180
17 | 42 | CCCn1cc(S(=O)(=O)N2CCC(Cc3ccccc3)(c3cc4cnn(-c5ccc(F)cc5)c4cc3C)C2)cn1 (stereo not shown) [Example 147] | 12
18 | 13 | CCCn1cc(S(=O)(=O)N2CCC(Cc3cccnc3)(c3cc4cnn(-c5ccc(F)cc5)c4cc3C)C2)cn1 (stereo not shown) [Example 149] | 108
19 | 17 | Cc1cc2c(cnn2-c2ccc(F)cc2)cc1C1(Cc2ccccn2)CCN(S(=O)(=O)c2cnn(C)c2)C1 (stereo not shown) [Example 151] | 161

Continued, compound first:

Row | Compound | IC50 [2] [nM] | Ki [1] [nM]
20 | CCCn1cc(S(=O)(=O)N2CCC(Cc3ccccc3)(c3cc4cnn(-c5ccc(F)cc5)c4cc3C)CC2)cn1 [Example 25, 5-(4-benzyl-1-((1-propyl-1H-pyrazol-4-yl)sulfonyl)piperidin-4-yl)-1-(4-fluorophenyl)-6-methyl-1H-indazole] | 67 | 29
21 | CNS(=O)(=O)C1CCN(c2cc3cnn(-c4ccc(F)cc4)c3cc2C)C1 (stereo not shown) [Example 28, 1-(1-(4-fluorophenyl)-6-methyl-1H-indazol-5-yl)-N-methylpyrrolidine-3-sulfonamide] | 114 | 1060
22 | CCCn1cc(NS(=O)(=O)C2CCN(c3cc4cnn(-c5ccc(F)cc5)c4cc3C)C2)cn1 (stereo not shown) [Example 29, 1-(1-(4-fluorophenyl)-6-methyl-1H-indazol-5-yl)-N-(1-propyl-1H-pyrazol-4-yl)pyrrolidine-3-sulfonamide] | 9 | 210
23 | Cc1cc2c(cnn2-c2ccc(F)cc2)cc1C1CCN(C(=O)NC(C)C)CC1 [Example 32, 4-(1-(4-fluorophenyl)-6-methyl-1H-indazol-5-yl)-N-isopropylpiperidine-1-carboxamide] | 70 | 400
24 | C[C@@H]1CN(c2ccc3c(cnn3-c3ccc(F)cc3)c2)CCN1S(=O)(=O)c1cnn(CC2CC2)c1 [Example 39] | 81 | 242
25 | Cc1cc2c(cnn2-c2ccc(F)cc2)cc1N1CCN(S(C)(=O)=O)C2(CC2)C1 [Example 58] | 32 | 321
26 | Cc1cc2c(cnn2-c2ccc(F)cc2)cc1N1CCN(S(=O)(=O)c2cnn(C)c2)C2(CC2)C1 [Example 59] | 19 | 246
27 | CCCn1cc(S(=O)(=O)N2CCN(c3cc4cnn(-c5ccc(F)cc5)c4cc3C)CC23CC3)cn1 [Example 60] | 8 | 39
28 | CCCn1cc(S(=O)(=O)N2C[C@H](C)N(c3ccc4c(cnn4-c4ccc(F)cc4)c3)C[C@@H]2C)cn1 [Example 61] | 25 | 205
29 | C[C@@H]1CN(c2ccc3c(cnn3-c3ccc(F)cc3)c2)CCN1S(=O)(=O)c1ccnn1C [Example 65] | 334 | 1480
30 | Cc1cc2c(cnn2-c2ccc(F)cc2)cc1N1CCN(S(=O)(=O)c2cnn(CC(F)(F)F)c2)C2(CC2)C1 [Example 67] | 18 | 33
31 | COc1cc2c(cnn2-c2ccc(F)cc2)cc1N1CCN(S(C)(=O)=O)C2(CC2)C1 [Example 70] | 28 | 1580
32 | CCCn1cc(S(=O)(=O)N2C3CC2CN(c2cc4cnn(-c5ccc(F)cc5)c4cc2C)C3)cn1 [Example 73] | 151 | 306
33 | CCCn1cc(S(=O)(=O)N2CCN(c3cc4cnn(-c5cccc(C(=O)NC6CCOC6)c5)c4cc3C)CC23CC3)cn1 (stereo not shown) [Example 84] | 10 | 103
34 | Cc1cc2c(cnn2-c2cccc(C(=O)NC3CCOC3)c2)cc1N1CCN(S(C)(=O)=O)C2(CC2)C1 (stereo not shown) [Example 85] | 163 | 1420
35 | Cc1cc2c(cnn2-c2ccc(F)cc2)cc1N1CCC2CN(S(C)(=O)=O)CC21 (stereo not shown) [Example 90] | 45 | 343
36 | CCCn1cc(S(=O)(=O)N2CC3CCN(c4cc5cnn(-c6ccc(F)cc6)c5cc4C)C3C2)cn1 (stereo not shown) [Example 91] | 227 | 336
37 | CCCn1cc(S(=O)(=O)N2CCC3(CCN(c4cc5cnn(-c6ccc(F)cc6)c5cc4C)CC3)C2)cn1 [Example 94] | 52 | 95
38 | Cc1cc2c(cnn2-c2ccc(F)cc2)cc1N1CCN(C(=O)c2cnn(C)c2)C2(CC2)C1 [Example 100] | 233 | 1200
39 | Cc1cc2c(cnn2-c2ccc(F)cc2)cc1N1CCN(C(=O)c2ccc(F)c(F)c2)C2(CC2)C1 [Example 101] | 118 | 823
40 | CCOC(=O)N1CCN(c2cc3cnn(-c4ccc(F)cc4)c3cc2C)CC12CC2 [Example 103] | 135 | 1710
41 | CCCn1cc(S(=O)(=O)N(CCOC)[C@@H]2CCN(c3cc4cnn(-c5ccc(F)cc5)c4cc3C)C2)cn1 [Example 122] | 14 | 155
42 | CCCn1cc(S(=O)(=O)NC2(C)CCN(c3cc4cnn(-c5ccc(F)cc5)c4cc3C)CC2)cn1 [Example 129] | 5 | 66
43 | Cc1cc2c(cnn2-c2ccc(F)cc2)cc1N1CCC(C)(NS(C)(=O)=O)CC1 [Example 130] | 8 | 144
44 | CCCn1cc(S(=O)(=O)N2CC=C(c3cc4cnn(-c5ccc(F)cc5)c4cc3C(C)C)CC2)cn1 [Example 141] | 4220 | 487
45 | CS(=O)(=O)N1CC=C(c2cc3cnn(-c4ccc(F)cc4)c3cc2Cl)CC1 [Example 142] | 429 | 715
46 | Cc1cc2c(cnn2-c2ccc(F)cc2)cc1C1(Cc2cccnc2)CCN(S(C)(=O)=O)C1 (stereo not shown) [Example 148] | 24 | 331
47 | Cc1cc2c(cnn2-c2ccc(F)cc2)cc1C1(Cc2ccccn2)CCN(S(C)(=O)=O)C1 (stereo not shown) [Example 150] | 13 | 169
